Patent publication US6376243B1, “DNA encoding a human serotonin receptor (5-HT4B) and uses thereof” (Synaptic Pharmaceutical Corporation, priority 1992, dated 2002)
Where two headings read alike, the source gives them in different places.

Legend:
[1] = target: T1, clone hp78a (human 5-HT4B receptor) (Homo sapiens, UniProt P34969); assay: Competition of [3H]5-HT binding to membranes of cells transiently expressing clone hp78a
[2] = target: human 5-HT4B receptor (Homo sapiens, UniProt P34969); assay: cAMP formation in intact Cos-7 cells transiently expressing the receptor; settings: for inhibition at 10 µM: COS-7, read-out: % INHIBITION OF 5-HT RESPONSE
[3] = target: T1, clone hp78a (human 5-HT4B receptor); assay: [3H]5-HT saturation binding to membranes of transiently transfected Cos-7 cells; settings: 100 μM Gpp(NH)p; membranes from transient transfectants
[4] = read-out: Apparent dissociation constant Ki
[5] = 5 nM [3H]5-HT, 30 min at 37° C., mean ± S.E.M.
[6] = Apparent dissociation constant Ki
[7] = Apparent dissociation constant Ki, 5 nM [3H]5-HT, seven concentrations of competitor, 30 min at 37° C., Cheng-Prusoff, mean ± S.E.M. from 2-3 determinations
[8] = competitor 100 nM, 5 nM [3H]5-HT, 30 min at 37° C.

T1 sequence (P34969 1-445 isoform P34969-2): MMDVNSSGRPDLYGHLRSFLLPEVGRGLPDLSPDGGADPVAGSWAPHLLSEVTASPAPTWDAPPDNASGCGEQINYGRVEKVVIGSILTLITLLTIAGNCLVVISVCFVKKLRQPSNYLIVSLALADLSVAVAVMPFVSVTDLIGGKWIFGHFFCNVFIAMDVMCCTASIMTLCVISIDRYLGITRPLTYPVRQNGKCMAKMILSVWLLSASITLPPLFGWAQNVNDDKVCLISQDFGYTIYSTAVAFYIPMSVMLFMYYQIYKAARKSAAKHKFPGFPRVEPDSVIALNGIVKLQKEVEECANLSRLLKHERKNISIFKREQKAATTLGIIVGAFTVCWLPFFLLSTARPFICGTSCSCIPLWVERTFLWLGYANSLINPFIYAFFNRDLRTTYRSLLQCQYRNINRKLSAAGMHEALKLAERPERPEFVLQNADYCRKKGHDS
Chain of human 5-HT4B receptor (P34969 1-445 isoform P34969-2): as above

Structure (SMILES): CC(C)NCC(O)COc1cccc2[nH]ccc12 (racemic) [Pindolol]
- PERCENT INHIBITION of specific [3H]5-HT binding [1]: 11%

Structure (SMILES): c1ccc2c(N3CCNCC3)cccc2c1 [1-NP, 1-naphthylpiperazine]
- PERCENT INHIBITION of specific [3H]5-HT binding [1]: 44%

Structure (SMILES): CCN(CC)C(=O)[C@@H]1C=C2c3cccc4[nH]c(Br)c(c34)C[C@H]2N(C)C1 [2-Br-LSD]
- Hill coefficient nH [1]: 1.02 ± 0.16
- Ki [1, 4]: 39 ± 7 nM
- FOLD cAMP STIMULATION relative to basal levels ([2]; drug 1 μM, intact Cos-7 cells): 0 fold

Structure (SMILES): Cc1[nH]c2ccc(O)cc2c1CCN [2-Me-5-HT]
- PERCENT INHIBITION of specific [3H]5-HT binding [1]: 7%

Structure (SMILES): NCCc1c[nH]c2ccc(O)cc12 [5-HT, 5-hydroxytryptamine]
- Hill coefficient nH [1, 5]: 1.07 ± 0.07
- inhibition of basal or FSK-stimulated cAMP release ([2]; 5-HT 1 μM, transfected Cos-7 cells): not observed
- increase in cAMP release over basal levels ([2]; discussion statement): 20 fold
- Ki in binding assays higher affinity than EC50 in functional assays ([2]; ratio of EC50 to Ki): approximately 100 fold

Structure (SMILES): COc1ccc2[nH]cc(CCN)c2c1 [5-MeOT]
- Hill coefficient nH [1]: 1.00 ± 0.03
- agonist activity on cAMP [2]: potent agonists

Structure (SMILES): CC(C)C[C@H]1C(=O)N2CCC[C@H]2[C@]2(O)O[C@](NC(=O)[C@@H]3C=C4c5cccc6[nH]c(Br)c(c56)C[C@H]4N(C)C3)(C(C)C)C(=O)N12 [Bromocriptine]
- Hill coefficient nH [1]: 1.15
- Ki [1, 6]: 135 nM

Structure (SMILES): CN(C)CCc1c[nH]c2ccc(O)cc12 [Bufotenin]
- PERCENT INHIBITION of specific [3H]5-HT binding [1]: 40%

Structure (SMILES): CN1CCC(=C2c3ccccc3C=Cc3ccccc32)CC1 [Cyproheptadine]
- PERCENT INHIBITION of specific [3H]5-HT binding ([1]; competitor 30 nM, 5 nM [3H]5-HT, 30 min at 37° C.): 36%

Structure (SMILES): CCCN(CCC)CCc1c[nH]c2ccc(C(N)=O)cc12 [DP-5-CT]
- Hill coefficient nH [1]: 0.78
- Ki [1, 4]: 62 nM

Structure (SMILES): CCCN(CCC)C1CCc2cccc(O)c2C1 (centres unmarked) [DPAT]
- Hill coefficient nH [1, 5]: 0.76

Structure (SMILES): CN1C[C@H](C(=O)N[C@]2(C)O[C@@]3(O)[C@@H]4CCCN4C(=O)[C@H](Cc4ccccc4)N3C2=O)C[C@@H]2c3cccc4[nH]cc(c34)C[C@H]21 [Dihydroergotamine]
- Hill coefficient nH [1]: 1.36 ± 0.08
- Ki [1, 6]: 6 ± 0.2 nM
- Ki [1, 4]: 5 to 10 nM

Structure (SMILES): CN1C[C@H](C(=O)N[C@]2(C)O[C@@]3(O)[C@@H]4CCCN4C(=O)[C@H](Cc4ccccc4)N3C2=O)C=C2c3cccc4[nH]cc(c34)C[C@H]21 [Ergotamine]
- PERCENT INHIBITION of specific [3H]5-HT binding [1]: 79%

Structure (SMILES): Nc1nc2c(ncn2[C@@H]2O[C@H](COP(=O)(O)OP(=O)(O)NP(=O)(O)O)[C@@H](O)[C@H]2O)c(=O)[nH]1 [Gpp(NH)p, 5′-guanylylimidodiphosphate]
- reduction of high affinity [3H]5-HT binding [3]: 75%

Structure (SMILES): CN1[C@@H]2CC[C@H]1C[C@@H](OC(=O)c1c[nH]c3ccccc13)C2 [ICS 203930]
- Ki ([1]; read-out: Apparent dissociation constant Ki, 5 nM [3H]5-HT, seven concentrations of competitor, 30 min at 37° C., Cheng-Prusoff, mean ± S.E.M. from 2-3 determinations): > 500 nM
- inhibitory effect on the 5-HT cAMP response ([2]; 100 μM): weak inhibitory effect
- activity at the 5-HT4B receptor ([2]; discussion statement): either poorly active or inactive

Structure (SMILES): O=C(c1ccc(F)cc1)C1CCN(CCn2c(=O)[nH]c3ccccc3c2=O)CC1 [Ketanserin]
- Ki [1, 7]: > 100 nM
- PERCENT INHIBITION of specific [3H]5-HT binding [1, 8]: 17%

Structure (SMILES): CN1C[C@@H](NS(=O)(=O)N(C)C)C[C@@H]2c3cccc4c3c(cn4C)C[C@H]21 [Mesulergine]
- Hill coefficient nH [1, 5]: 1.09
- Ki [1, 7]: 9.6 nM

Structure (SMILES): CN1C[C@H](CNC(=O)OCc2ccccc2)C[C@@H]2c3cccc4c3c(cn4C)C[C@H]21 [Metergoline]
- Hill coefficient nH [1, 5]: 1.23
- Ki [1, 7]: 5.5 nM
- antagonism of the 5-HT cAMP response ([2]; 10 μM): almost completely
- inhibition at 10 µM [2]: 96 ± 1%

Structure (SMILES): CC[C@@H](CO)NC(=O)[C@@H]1C=C2c3cccc4c3c(cn4C)C[C@H]2N(C)C1 [Methysergide]
- PERCENT INHIBITION of specific [3H]5-HT binding [1]: 51%
- antagonism of the 5-HT cAMP response [2]: almost completely
- inhibition at 10 µM [2]: 82 ± 1.5%

Structure (SMILES): Cc1nc2sccn2c(=O)c1CCN1CCC(=C(c2ccc(F)cc2)c2ccc(F)cc2)CC1 [Ritanserin]
- PERCENT INHIBITION of specific [3H]5-HT binding ([1]; competitor 10 nM, 5 nM [3H]5-HT, 30 min at 37° C.): 32%

Structure (SMILES): O=C(CCCN1CCC2(CC1)C(=O)NCN2c1ccccc1)c1ccc(F)cc1 [Spiperone]
- PERCENT INHIBITION of specific [3H]5-HT binding [1, 8]: 64%

Structure (SMILES): CNS(=O)(=O)Cc1ccc2[nH]cc(CCN(C)C)c2c1 [Sumatriptan]
- Hill coefficient nH [1, 5]: 0.88 ± 0.03
- Ki [1, 7]: 764 ± 29 nM

Structure (SMILES): NCCc1c[nH]c2ccccc12 [Tryptamine]
- PERCENT INHIBITION of specific [3H]5-HT binding [1]: 32%

Structure (SMILES): COc1cc(N)c(Cl)cc1C(=O)NC1CN2CCC1CC2 (centres unmarked) [Zacopride]
- Ki [1, 7]: > 500 nM
- PERCENT INHIBITION of specific [3H]5-HT binding [1, 8]: 0%
- activity at the 5-HT4B receptor ([2]; discussion statement): either poorly active or inactive

Structure (SMILES): COc1cc(N)c(Cl)cc1C(=O)NC1CCN(CCCOc2ccc(F)cc2)CC1OC (centres unmarked) [cisapride]
- activity at the 5-HT4B receptor ([2]; discussion statement): either poorly active or inactive
